Experimental data taken from the NIST ThermoML archive (doi:10.1016/j.fluid.2010.03.004).

Experiment: xn = mol fraction of the nth substance listed
Conditions: Liquid, Vibrating tube method

CC(C)O [propan-2-ol] + O=C=O
Conditions | mass density [kg/m3]
313.22 K, x2 = 0.1267 | 783.1
313.22 K, x2 = 0.2066 | 789.6
313.22 K, x2 = 0.3029 | 799.3
313.22 K, x2 = 0.3845 | 803.6
313.22 K, x2 = 0.4501 | 806.7
313.22 K, x2 = 0.554 | 805.4
313.22 K, x2 = 0.6472 | 794.9
313.22 K, x2 = 0.7539 | 783.1
313.22 K, x2 = 0.902 | 703.7
333.03 K, x2 = 0.137 | 761
333.03 K, x2 = 0.2077 | 762.7
333.03 K, x2 = 0.3001 | 765
333.03 K, x2 = 0.4023 | 767.5
333.03 K, x2 = 0.4645 | 768.5
333.03 K, x2 = 0.6377 | 770.7
333.03 K, x2 = 0.7582 | 771.4
333.03 K, x2 = 0.8297 | 771.4
348.25 K, x2 = 0.0736 | 741.2
348.25 K, x2 = 0.1432 | 743.9
348.25 K, x2 = 0.2469 | 746.5
348.25 K, x2 = 0.3234 | 748.6
348.25 K, x2 = 0.4042 | 750.9
348.25 K, x2 = 0.5132 | 752.9
348.25 K, x2 = 0.5658 | 753.6
348.25 K, x2 = 0.7177 | 745.3
348.25 K, x2 = 0.755 | 646.5
348.25 K, x2 = 0.8241 | 568
362.92 K, x2 = 0.1016 | 641.7
362.92 K, x2 = 0.1668 | 690.6
362.92 K, x2 = 0.2312 | 726.4
362.92 K, x2 = 0.3079 | 728.3
362.92 K, x2 = 0.3719 | 728.7
362.92 K, x2 = 0.4681 | 726.5
362.92 K, x2 = 0.5653 | 704.5
362.92 K, x2 = 0.6285 | 671.6
362.92 K, x2 = 0.7165 | 590.4

CCCO [propan-1-ol] + O=C=O
Conditions | mass density [kg/m3]
313.24 K, x2 = 0.202 | 807
313.24 K, x2 = 0.2572 | 812.6
313.24 K, x2 = 0.3141 | 817.6
313.24 K, x2 = 0.4054 | 823.3
313.24 K, x2 = 0.4405 | 824.4
313.24 K, x2 = 0.5256 | 826.3
313.24 K, x2 = 0.5773 | 825.7
313.24 K, x2 = 0.6774 | 822
313.24 K, x2 = 0.7843 | 786.8
363.17 K, x2 = 0.1483 | 752
363.17 K, x2 = 0.2294 | 754.9
363.17 K, x2 = 0.3137 | 754.8
363.17 K, x2 = 0.4007 | 753.6
363.17 K, x2 = 0.4863 | 749.7
363.17 K, x2 = 0.6808 | 680.6
363.17 K, x2 = 0.7308 | 638.5
